Data taken from patent US9708590B2, “Crystal structure of human α-N-acetylglucosaminidase” (Shire Human Genetic Therapies, Inc., priority 2010, dated 2017).

Columns and labels:
[1] = Solubility of the activity-assay substrate in water; format: physicochemical; settings: required DMSO to be dissolved
Description: A 10 mM stock of substrate was prepared by dissolving 5 mg of 4-methylumbelliferyl-N-acetyl-α-D-glucosaminide in 250 μL of 100% DMSO first. Naglu activity assay reaction buffer was then added to bring the volume up to […]. This 10 mM Substrate stock was further diluted 10-fold with reaction buffer to make the 1 mM substrate solution. Un-used 10 mM substrate stock was stored in −80° C. for up to one month. Samples and controls were pre-diluted in reaction buffer. 10 μL of each pre-diluted sample/control was applied in duplicate wells on a black clear bottom 96 well plate. 10 μL of reaction buffer was added to two wells of the plate and served as reaction buffer control. 75 μL of 1 mM substrate was added to each well that contained 10 μL of sample/control. The plate was sealed with plate sealer and wrapped with aluminum foil. The plate was placed in 37° C. Jitterbug and incubated with shaking setting at #1 for 1 hour. Prior to the completion of incubation, standards were prepared by diluting the stock (1000 μM) of 4-methlyumbelliferyl sodium salt down to 25 μM, 12.5 μM, 6.25 μM, 3.12 μM, 1.56 μM, 0.78 μM, 0 μM with water. At the completion of incubation, 85 μL of each of the seven standards was loaded on the plate in duplicate. […] The plate was measured for fluorescence at 360/460 (Excitation/Emission) using a Molecular Devices SpectraMax Plus M2 plate reader.

[2] = test system: MSP III-B derived fibroblasts; settings: in vitro, Malinowska et al. (2009); cited from earlier work

SMILES	solubility in water [1]	effect on GAG synthesis [2]
CC(=O)N[C@H]1[C@@H](Oc2ccc3c(C)cc(=O)oc3c2)O[C@H](CO)[C@@H](O)[C@@H]1O [4-methylumbelliferyl-N-acetyl-α-D-glucosaminide]	very low solubility in water	–
O=c1c(-c2ccc(O)cc2)coc2cc(O)cc(O)c12 [gensteine]	–	inhibit GAG synthesis
